One series concerns Septoria tritici. The experiment in a line: Test D: wheat leaf blotch, preventive spray on wheat seedlings, visual disease rating. In kind it is in vivo. Particulars: 100 = 100 % disease control, 0 = no disease control relative to controls. An excerpt:
A dash (−) indicates no test results.

The next series has as its system Phytophthora infestans. It counts as in vivo. Particulars: 100 = 100 % disease control, 0 = no disease control relative to controls.
Series [1] deals with Puccinia recondita f. sp. tritici. The series is described as follows: Test B: wheat leaf rust, preventive spray on wheat seedlings, visual disease rating. To be noted: 100 = 100 % disease control, 0 = no disease control relative to controls.
The next series deals with Botrytis cinerea. The series is described as follows: Test E: tomato Botrytis, preventive spray on tomato seedlings, visual disease rating. To be noted: 100 = 100 % disease control, 0 = no disease control relative to controls.
Another series concerns Septoria nodorum. The series is described as follows: Test C: wheat glume blotch, preventive spray on wheat seedlings, visual disease rating. Particulars: 100 = 100 % disease control, 0 = no disease control relative to controls.
Series [2] concerns Erysiphe graminis f. sp. tritici. The experiment in a line: Test A: wheat powdery mildew, preventive spray on wheat seedlings, visual disease rating. Particulars: 100 = 100 % disease control, 0 = no disease control relative to controls.
A further series relates to Alternaria solani. The series is described as follows: Test F: tomato early blight, preventive spray on tomato seedlings, visual disease rating. Particulars: 100 = 100 % disease control, 0 = no disease control relative to controls.
The test system of a further series is Plasmopara viticola. The series is described as follows: Test I: grape downy mildew, spray on grape seedlings after inoculation, visual disease rating. Particulars: 100 = 100 % disease control, 0 = no disease control relative to controls.
The subject of a further series is Rhizoctonia oryzae. The experiment in a line: Test G: turf brown patch, preventive spray on creeping bent grass seedlings, visual disease rating. To be noted: 100 = 100 % disease control, 0 = no disease control relative to controls.

Data on eight compounds can be found in patent US20090270407A1, “FUNGICIDAL ISOXAZOLIDINES” (E. I. DU PONT DE NEMOURS AND COMPANY, priority 2008, published 2009).

Where two headings read alike, the source gives them in different places. Marks after values point to notes of the source that are not given here.

Text for Alternaria solani: (§1) General protocol for preparing test suspensions for Tests A-I: The test compounds were first dissolved in acetone in an amount equal to 3% of the final volume and then suspended at the desired concentration (in ppm) in acetone and purified water (50/50 mix) containing 250 ppm of the surfactant Trem® 014 (polyhydric alcohol esters). The resulting test suspensions were then used in Tests A-I. Spraying a 200 ppm test suspension to the point of run-off on the test plants was the equivalent of a rate of 500 g/ha. (An asterisk “*” next to the rating value indicates a 40 ppm test suspension.)
The test suspension was sprayed to the point of run-off on tomato seedlings. The following day the seedlings were inoculated with a spore suspension of Alternaria solani (the causal agent of tomato early blight) and incubated in a saturated atmosphere at 27° C. for 48 h, and then moved to a growth chamber at 20° C. for 5 days, after which time visual disease ratings were made.
(§2) A dash (−) indicates no test results. All results are for 200 ppm except where followed by “*” which indicates 40 ppm.
Text for Plasmopara viticola: as §1
Grape seedlings were inoculated with a spore suspension of Plasmopara viticola (the causal agent of grape downy mildew) and incubated in a saturated atmosphere at 20° C. for 24 h. After a short drying period, the test suspension was sprayed to the point of run-off on the grape seedlings and then moved to a growth chamber at 20° C. for 6 days, after which time the test units were placed back into a saturated atmosphere at 20° C. for 24 h. Upon removal, visual disease ratings were made.
All results are for 200 ppm except where followed by “*” which indicates 40 ppm.
Experimental for Rhizoctonia oryzae: The test suspension was sprayed to the point of run-off on creeping bent grass seedlings. The following day the seedlings were inoculated with a spore suspension of Rhizoctonia oryzae (the causal agent of turf brown patch) and incubated in a saturated atmosphere at 27° C. for 48 h, and then moved to a growth chamber at 27° C. for 3 days, after which time visual disease ratings were made.
as §2
Experimental for Septoria nodorum: (An asterisk “*” next to the rating value indicates a 40 ppm test suspension.)
The test suspension was sprayed to the point of run-off on wheat seedlings. The following day the seedlings were inoculated with a spore suspension of Septoria nodorum (the causal agent of wheat glume blotch) and incubated in a saturated atmosphere at 20° C. for 48 h, and then moved to a growth chamber at 20° C. for 7 days, after which time visual disease ratings were made.
as §2

`CN1O[C@](c2cccnc2)(C(F)(F)F)C[C@@H]1c1ccc(I)cc1` (relative stereo) [Compound 28, rel-3-[(3R,5R)-3-(4-iodophenyl)-2-methyl-5-(trifluoromethyl)-5-isoxazolidinyl]pyridine] gave a melting point of 108 to 110 °C. The “Test D disease control rating” value in the series with Septoria tritici (40 ppm (marked *)) is recorded as 88* %. In the series on Phytophthora infestans (40 ppm (marked *)), the “Test H disease control rating” value is on record as 0* %. In addition, the “Test B disease control rating” value in series [1] (40 ppm (marked *)) is reported as 0* %. Moreover, the “Test E disease control rating” value in the series with Botrytis cinerea (40 ppm (marked *)) is 0* %. Further, in the series on Septoria nodorum (40 ppm (marked *)), the “Test C disease control rating” value was 33* %. Besides, in [2] (40 ppm (marked *)), the “Test A disease control rating” value was 99* %. In addition, in the series with Alternaria solani (40 ppm (marked *)), the “Test F disease control rating” value is listed as 0* %. In addition, the “Test I disease control rating” value in the series on Plasmopara viticola (40 ppm (marked *)) was 0* %. The “Test G disease control rating” value with Rhizoctonia oryzae (40 ppm (marked *)) is 0* %.
Regarding `CN1O[C@](C)(c2cnccn2)C[C@@H]1c1ccc(-c2ccccc2)cc1` (relative stereo) [Compound 21, rel-2-[(3R,5S)-3-[1,1′-biphenyl]-4-yl-2,5-dimethyl-5-isoxazolidinyl]pyrazine], the “Test D disease control rating” value with Septoria tritici (40 ppm (marked *)) is on record as 95* %. Besides, in the series on Phytophthora infestans (40 ppm (marked *)), the “Test H disease control rating” value is recorded as 0* %. For the same compound, the “Test B disease control rating” value in series [1] (40 ppm (marked *)) is listed as 0* %. In addition, the “Test E disease control rating” value in the series on Botrytis cinerea (40 ppm (marked *)) is listed as 0* %. Also, in the series on Septoria nodorum (40 ppm (marked *)), the “Test C disease control rating” value was 0* %. The “Test A disease control rating” value in [2] (40 ppm (marked *)) is on record as 97* %. The “Test F disease control rating” value in the series on Alternaria solani (40 ppm (marked *)) is 62* %. In addition, the “Test I disease control rating” value in the series with Plasmopara viticola (40 ppm (marked *)) is 0* %. Besides, in the series on Rhizoctonia oryzae (40 ppm (marked *)), the “Test G disease control rating” value is recorded as 0* %.
With `CN1OC(C)(c2cccnc2)CC1c1ccc(-n2cc(Br)cn2)cc1` (centres unmarked) [Compound 38], in the series on Septoria tritici (40 ppm (marked *)), the “Test D disease control rating” value was 77* %. Besides, in the series with Phytophthora infestans (40 ppm (marked *)), the “Test H disease control rating” value is listed as 0* %. Further, the “Test B disease control rating” value in series [1] (40 ppm (marked *)) is reported as 0* %. Besides, the “Test E disease control rating” value in the series with Botrytis cinerea (40 ppm (marked *)) is 0* %. Further, the “Test C disease control rating” value in the series on Septoria nodorum (40 ppm (marked *)) was 0* %. For the same compound, the “Test A disease control rating” value in [2] (40 ppm (marked *)) was 0* %. The “Test F disease control rating” value in the series on Alternaria solani (40 ppm (marked *)) is reported as 42* %. The “Test I disease control rating” value in the series with Plasmopara viticola (40 ppm (marked *)) is on record as 0* %. The “Test G disease control rating” value in the series with Rhizoctonia oryzae (40 ppm (marked *)) is reported as 0* %.
For the compound `CN1OC(C)(c2cccnc2)CC1c1ccc(Oc2ccc(F)cc2)cc1` (racemic) [Compound 19], the “Test D disease control rating” value with Septoria tritici (200 ppm) was determined as 98%. In addition, the “Test H disease control rating” value in the series on Phytophthora infestans (200 ppm) amounted to 0%. Besides, in series [1] (200 ppm), the “Test B disease control rating” value was 91%. In addition, the “Test E disease control rating” value with Botrytis cinerea (200 ppm) is recorded as 98%. Also, the “Test C disease control rating” value with Septoria nodorum (200 ppm) is listed as 99%. Also, the “Test A disease control rating” value in series [2] (200 ppm) is reported as 98%. Moreover, the “Test F disease control rating” value with Alternaria solani (200 ppm) worked out at 7%. Besides, the “Test I disease control rating” value with Plasmopara viticola (200 ppm) is on record as 0%. Further, in the series with Rhizoctonia oryzae (200 ppm), the “Test G disease control rating” value was determined as 0%.
As for `Cc1ccc(-c2ccc(C3CC(c4cccnc4)(C(F)(F)F)ON3C)cc2)cc1` (racemic) [Compound 25], the “Test D disease control rating” value in the series on Septoria tritici (40 ppm (marked *)) is listed as 86* %. Besides, the “Test H disease control rating” value in the series on Phytophthora infestans (40 ppm (marked *)) is reported as 0* %. In series [1] (40 ppm (marked *)), the “Test B disease control rating” value is reported as 0* %. Besides, in the series with Botrytis cinerea (40 ppm (marked *)), the “Test E disease control rating” value is listed as 71* %. The “Test C disease control rating” value in the series with Septoria nodorum (40 ppm (marked *)) is 0* %. Further, the “Test A disease control rating” value in series [2] (40 ppm (marked *)) is 100* %. In addition, the “Test F disease control rating” value in the series on Alternaria solani (40 ppm (marked *)) is 0* %. Further, in the series with Plasmopara viticola (40 ppm (marked *)), the “Test I disease control rating” value is reported as 0* %. For the same compound, the “Test G disease control rating” value in the series on Rhizoctonia oryzae (40 ppm (marked *)) is given as 0* %.
The compound `CN1O[C@@](c2cccnc2)(C(F)(F)F)C[C@@H]1c1ccc(I)cc1` (relative stereo) [Compound 27, rel-3-[(3R,5S)-3-(4-iodophenyl)-2-methyl-5-(trifluoromethyl)-5-isoxazolidinyl]pyridine] gave a melting point of 80 to 83 °C. Also, the “Test D disease control rating” value in the series with Septoria tritici (40 ppm (marked *)) is 95* %. Moreover, the “Test H disease control rating” value with Phytophthora infestans (40 ppm (marked *)) is recorded as 0* %. The “Test B disease control rating” value in series [1] (40 ppm (marked *)) is on record as 0* %. Moreover, the “Test E disease control rating” value in the series on Botrytis cinerea (40 ppm (marked *)) is given as 0* %. Further, in the series with Septoria nodorum (40 ppm (marked *)), the “Test C disease control rating” value was 100* %. For the same compound, the “Test A disease control rating” value in series [2] (40 ppm (marked *)) is on record as 100* %. In the series with Alternaria solani (40 ppm (marked *)), the “Test F disease control rating” value is given as 100* %. The “Test I disease control rating” value in the series on Plasmopara viticola (40 ppm (marked *)) is 0* %. In addition, the “Test G disease control rating” value in the series on Rhizoctonia oryzae (40 ppm (marked *)) is given as 0* %.
For `Cc1cccc(-c2ccc(C3CC(c4cccnc4)(C(F)(F)F)ON3C)cc2)c1C` (racemic) [Compound 31], the “Test D disease control rating” value in the series with Septoria tritici (40 ppm (marked *)) was 50* %. The “Test H disease control rating” value in the series with Phytophthora infestans (40 ppm (marked *)) is given as 0* %. Further, the “Test B disease control rating” value in [1] (200 ppm) is listed as 0%. Also, in the series with Botrytis cinerea (40 ppm (marked *)), the “Test E disease control rating” value was 0* %. Also, the “Test C disease control rating” value in the series on Septoria nodorum (40 ppm (marked *)) is 0* %. Also, the “Test A disease control rating” value in series [2] (40 ppm (marked *)) is 98* %. Moreover, the “Test F disease control rating” value in the series with Alternaria solani (40 ppm (marked *)) was 0* %. Moreover, the “Test I disease control rating” value with Plasmopara viticola (200 ppm) is given as 0%. For the same compound, in the series with Rhizoctonia oryzae (40 ppm (marked *)), the “Test G disease control rating” value is given as 0* %.
Turning to `Cc1cccc(-c2ccc(C3CC(c4cccnc4)(C(F)(F)F)ON3C)cc2)c1C` (racemic) [Compound 32], in the series with Septoria tritici (200 ppm), the “Test D disease control rating” value amounted to 85%. Further, the “Test H disease control rating” value with Phytophthora infestans (200 ppm) stood at 0%. The “Test B disease control rating” value in series [1] (200 ppm) was 0%. For the same compound, in the series with Botrytis cinerea (200 ppm), the “Test E disease control rating” value came to 0%. The “Test C disease control rating” value with Septoria nodorum (200 ppm) amounted to 0%. The “Test A disease control rating” value in series [2] (200 ppm) came out at 97%. Further, the “Test F disease control rating” value with Alternaria solani (200 ppm) amounted to 0%. Besides, the “Test I disease control rating” value in the series with Plasmopara viticola (200 ppm) stood at 9%. Moreover, the “Test G disease control rating” value in the series on Rhizoctonia oryzae (200 ppm) came to 0%.
